Earlier results in US11646117B2, “Matrix factorization of antibiogram metadata” (priority 2019, dated 2023).
Where two headings read alike, the source gives them in different places.

System: Klebsiella pneumoniae (biosample SAMN07265011, strain DHQP1605752_NV)
Conditions: for Measurement (MIC): CLSI; for Resistance phenotype: testing standard CLSI

| Compound | Measurement (MIC) (laboratory typing method MIC) | Resistance phenotype | Measurement (MIC) (MIC, platform Agar dilution) | Measurement (MIC) (MIC, platform Etest) |
| --- | --- | --- | --- | --- |
| NCC[C@H](O)C(=O)N[C@@H]1C[C@H](N)[C@@H](O[C@H]2O[C@H](CN)[C@@H](O)[C@H](O)[C@H]2O)[C@H](O)[C@H]1O[C@H]1O[C@H](CO)[C@@H](O)[C@H](N)[C@H]1O [amikacin] | > 64 µg/mL | resistant |  |  |
| CC1(C)S[C@@H]2[C@H](NC(=O)[C@H](N)c3ccccc3)C(=O)N2[C@H]1C(=O)O [ampicillin] | > 32 µg/mL | resistant |  |  |
| C[C@H]1[C@H](NC(=O)/C(=N\OC(C)(C)C(=O)O)c2csc(N)n2)C(=O)N1S(=O)(=O)O [aztreonam] | > 64 µg/mL | resistant |  |  |
| Cc1nnc(SCC2=C(C(=O)O)N3C(=O)[C@@H](NC(=O)Cn4cnnn4)[C@H]3SC2)s1 [cefazolin] | > 8 µg/mL | resistant |  |  |
| CO/N=C(\C(=O)N[C@@H]1C(=O)N2C(C(=O)[O-])=C(C[N+]3(C)CCCC3)CS[C@H]12)c1csc(N)n1 [cefepime] | > 32 µg/mL | resistant |  |  |
| CO/N=C(\C(=O)N[C@@H]1C(=O)N2C(C(=O)O)=C(COC(C)=O)CS[C@H]12)c1csc(N)n1 [cefotaxime] | > 64 µg/mL | resistant |  |  |
| CO[C@@]1(NC(=O)Cc2cccs2)C(=O)N2C(C(=O)O)=C(COC(N)=O)CS[C@@H]21 [cefoxitin] | > 16 µg/mL | resistant |  |  |
| CC(C)(O/N=C(\C(=O)N[C@@H]1C(=O)N2C(C(=O)[O-])=C(C[n+]3ccccc3)CS[C@H]12)c1csc(N)n1)C(=O)O [ceftazidime] | > 128 µg/mL | resistant |  |  |
| CO/N=C(\C(=O)N[C@@H]1C(=O)N2C(C(=O)O)=C(CSc3nc(=O)c(=O)[nH]n3C)CS[C@H]12)c1csc(N)n1 [ceftriaxone] | > 32 µg/mL | resistant |  |  |
| O=C(N[C@H](CO)[C@H](O)c1ccc([N+](=O)[O-])cc1)C(Cl)Cl [chloramphenicol] | > 16 µg/mL | resistant |  |  |
| C[C@@H](O)[C@H]1C(=O)N2C(C(=O)O)=C(S[C@@H]3CN[C@H](CNS(N)(=O)=O)C3)[C@H](C)[C@H]12 [doripenem] | > 8 µg/mL | resistant |  |  |
| C[C@@H](O)[C@H]1C(=O)N2C(C(=O)O)=C(S[C@@H]3CN[C@H](C(=O)Nc4cccc(C(=O)O)c4)C3)[C@H](C)[C@H]12 [ertapenem] | > 8 µg/mL | resistant |  |  |
| C[C@@H]1O[C@@H]1P(=O)(O)O [fosfomycin] |  |  | 32 µg/mL | 16 µg/mL |
| C[C@@H](O)[C@H]1C(=O)N2C(C(=O)O)=C(S[C@@H]3CN[C@H](C(=O)N(C)C)C3)[C@H](C)[C@H]12 [meropenem] | > 8 µg/mL | resistant |  |  |
| CN(C)c1cc(NC(=O)CNC(C)(C)C)c(O)c2c1C[C@H]1C[C@H]3[C@H](N(C)C)C(O)=C(C(N)=O)C(=O)[C@@]3(O)C(O)=C1C2=O [tigecycline] | 4 µg/mL | intermediate |  |  |
| NC[C@H]1O[C@H](O[C@H]2[C@H](O)[C@@H](O[C@H]3O[C@H](CO)[C@@H](O)[C@H](N)[C@H]3O)[C@H](N)C[C@@H]2N)[C@H](N)C[C@@H]1O [tobramycin] | > 16 µg/mL | resistant |  |  |
| colistin | > 8 µg/mL |  |  |  |
| gentamicin | > 16 µg/mL | resistant |  |  |
| polymyxin B | > 8 µg/mL |  |  |  |
